{
  "source": "patent US5308836A",
  "about": "“Pharmaceutical composition of stabilized [Leu^13 ]-motilin-Hse” (Sanwa Kagaku Kenkyusho Co., Ltd., priority 1991, dated 1994)",
  "key": {"[1]": {"conditions": "compared with native type motilin and [Leu^13 ]-motilin; cited from earlier work"}, "[2]": {"format": "physicochemical", "conditions": "lyophilized powder, no additive", "description": "(§1) Aqueous solutions, each containing 20 μg/ml of [Leu^13 ]-motilin were aseptically prepared by dissolving 1 mg of [Leu^13 ]-motilin in a refined water and adding 0.1N-sodium hydroxide and 0.1N-hydrochloric acid to adjust pH of each solution in various values.\n(§2) Each of the solutions different in pH value was aseptically charged in a glass vial to lyophilize the same. Each vial was stored in a constant temperature bath kept at 60° C. for 30 days and then a remaining amount of [Leu^13 ]-motilin was measured with HPLC method to check the relation with the pH value of the solution.\nAqueous solutions, each containing 20 μg/ml of [Leu^13 ]-motilin-Hsewere aseptically prepared by dissolving 1 mg of [Leu^13 ]-motilin-Hse in a refined water and adding 0.1N-sodium hydroxide and 0.1N-hydrochloric acid to adjust pH of each solution in various values.\nas §2, with “]-motilin-Hse and amount of [Leu^13 ]-motilin-Hse-lactone formed by modification of Hse residue at 23-position of the former were” for “]-motilin was”, “solution. […]” for “solution.”"}, "[3]": {"format": "physicochemical", "conditions": "for Amount of formed [Leu^13 ]-motilin-Hse-lactone: aqueous solution 20 μg/ml", "description": "An aqueous solution containing 20 μg/ml of [Leu^13 ]-motilin-Hse was aseptically prepared by dissolving 1 mg of [Leu^13 ]-motilin-Hse in a refined water and adding 0.1N-sodium hydroxide and 0.1N-hydrochloric acid to adjust pH of the solution to 6.0 or 7.0.\nEach of the solutions different in pH value was aseptically charged in a glass vial to seal the same. Each vial was stored in a constant temperature bath kept at 60° C. for 30 days and then a remaining amount of [Leu^13 ]-motilin-Hse was measured with HPLC method. […]\nAn aqueous solution containing 20 μg of [Leu^13 ]-motilin-Hse and 30 mg/ml of tartaric acid was aseptically prepared by dissolving 1 mg of [Leu^13 ]-motilin-Hse and tartaric acid in a refined water and adding 0.1N-sodium hydroxide and 0.1N-hydrochloric acid to adjust pH of the solution to 6.0 or 7.0.\nas §1\nas §2, with “seal” for “lyophilize”\n(§3) Aqueous solutions, each containing 20 μg/ml of [Leu^13 ]-motilin-Hsewere aseptically prepared by dissolving 1 mg of [Leu^13 ]-motilin-Hse in a refined water and adding 0.1 N-sodium hydroxide and 0.1 N-hydrochloric acid to adjust pH of each solution in various values.\nas §2, with “seal” for “lyophilize”, “]-motilin-Hse and amount of [Leu^13 ]-motilin-Hse-lactone formed by modification of Hse residue at 23-position of the former were” for “]-motilin was”\nas §3, with “]-motilin-Hseand 30 mg/ml of tartaric acid were” for “]-motilin-Hsewere”, “]-motilin-Hse and tartaric acid” for “]-motilin-Hse”\nas §3, with “]-motilin-Hseand 27.2 mg/ml of potassium dihydrogenphosphate were” for “]-motilin-Hsewere”, “]-motilin-Hse and potassium dihydrogenphosphate” for “]-motilin-Hse”, “N sodium” for “N-sodium”"}},
  "note": "Like-named read-outs stand apart in the source and are kept apart here.",
  "data": [
    {"substance": "[Leu^13 ]-motilin-Hse", "values": [
      {"measurement": "biological activities", "setting": "[1]", "result": "higher biological activities"},
      {"measurement": "Amount of formed [Leu^13 ]-motilin-Hse-lactone", "setting": "[2]; solution pH 3.0, 60° C. 30 days", "result": 25.1, "unit": "%"},
      {"measurement": "Amount of formed [Leu^13 ]-motilin-Hse-lactone", "setting": "[2]; solution pH 4.0, 60° C. 30 days", "result": 16.9, "unit": "%"},
      {"measurement": "Amount of formed [Leu^13 ]-motilin-Hse-lactone", "setting": "[2]; solution pH 4.5, 60° C. 30 days", "result": 7.3, "unit": "%"},
      {"measurement": "Amount of formed [Leu^13 ]-motilin-Hse-lactone", "setting": "[2]; solution pH 5.0, 60° C. 30 days", "result": 3.9, "unit": "%"},
      {"measurement": "Amount of formed [Leu^13 ]-motilin-Hse-lactone", "setting": "[2]; solution pH 5.5, 60° C. 30 days", "result": 1.8, "unit": "%"},
      {"measurement": "Amount of formed [Leu^13 ]-motilin-Hse-lactone", "setting": "[2]; solution pH 6.0, 60° C. 30 days", "result": 0, "unit": "%"},
      {"measurement": "Amount of formed [Leu^13 ]-motilin-Hse-lactone", "setting": "[2]; solution pH 6.5, 60° C. 30 days", "result": 0, "unit": "%"},
      {"measurement": "Amount of formed [Leu^13 ]-motilin-Hse-lactone", "setting": "[2]; solution pH 7.0, 60° C. 30 days", "result": 0, "unit": "%"},
      {"measurement": "Amount of formed [Leu^13 ]-motilin-Hse-lactone", "setting": "[2]; solution pH 8.0, 60° C. 30 days", "result": 0, "unit": "%"},
      {"measurement": "Amount of formed [Leu^13 ]-motilin-Hse-lactone", "setting": "[2]; solution pH 9.0, 60° C. 30 days", "result": 0, "unit": "%"},
      {"measurement": "pH range of relatively stable state", "setting": "[3]; [Leu^13 ]-motilin-Hse aqueous solution, no additive, 60° C. 30 days", "result": "4.0-6.0"},
      {"measurement": "Amount of formed [Leu^13 ]-motilin-Hse-lactone", "setting": "[3]; 27.2 mg/ml potassium dihydrogenphosphate, pH 3.0, 60° C. 30 days", "result": 31.1, "unit": "%"},
      {"measurement": "Amount of formed [Leu^13 ]-motilin-Hse-lactone", "setting": "[3]; 27.2 mg/ml potassium dihydrogenphosphate, pH 4.0, 60° C. 30 days", "result": 17.5, "unit": "%"},
      {"measurement": "Amount of formed [Leu^13 ]-motilin-Hse-lactone", "setting": "[3]; 27.2 mg/ml potassium dihydrogenphosphate, pH 4.5, 60° C. 30 days", "result": 9.3, "unit": "%"},
      {"measurement": "Amount of formed [Leu^13 ]-motilin-Hse-lactone", "setting": "[3]; 27.2 mg/ml potassium dihydrogenphosphate, pH 5.0, 60° C. 30 days", "result": 5.7, "unit": "%"},
      {"measurement": "Amount of formed [Leu^13 ]-motilin-Hse-lactone", "setting": "[3]; 27.2 mg/ml potassium dihydrogenphosphate, pH 5.5, 60° C. 30 days", "result": 2.1, "unit": "%"},
      {"measurement": "Amount of formed [Leu^13 ]-motilin-Hse-lactone", "setting": "[3]; 27.2 mg/ml potassium dihydrogenphosphate, pH 6.0, 60° C. 30 days", "result": 0, "unit": "%"},
      {"measurement": "Amount of formed [Leu^13 ]-motilin-Hse-lactone", "setting": "[3]; 27.2 mg/ml potassium dihydrogenphosphate, pH 6.5, 60° C. 30 days", "result": 0, "unit": "%"},
      {"measurement": "Amount of formed [Leu^13 ]-motilin-Hse-lactone", "setting": "[3]; 27.2 mg/ml potassium dihydrogenphosphate, pH 7.0, 60° C. 30 days", "result": 0, "unit": "%"},
      {"measurement": "Amount of formed [Leu^13 ]-motilin-Hse-lactone", "setting": "[3]; 27.2 mg/ml potassium dihydrogenphosphate, pH 8.0, 60° C. 30 days", "result": 0, "unit": "%"},
      {"measurement": "Amount of formed [Leu^13 ]-motilin-Hse-lactone", "setting": "[3]; 27.2 mg/ml potassium dihydrogenphosphate, pH 9.0, 60° C. 30 days", "result": 0, "unit": "%"},
      {"measurement": "Amount of formed [Leu^13 ]-motilin-Hse-lactone", "setting": "[3]; 30 mg/ml tartaric acid, pH 3.0, 60° C. 30 days", "result": 29.7, "unit": "%"},
      {"measurement": "Amount of formed [Leu^13 ]-motilin-Hse-lactone", "setting": "[3]; 30 mg/ml tartaric acid, pH 4.0, 60° C. 30 days", "result": 16.8, "unit": "%"},
      {"measurement": "Amount of formed [Leu^13 ]-motilin-Hse-lactone", "setting": "[3]; 30 mg/ml tartaric acid, pH 4.5, 60° C. 30 days", "result": 6.4, "unit": "%"},
      {"measurement": "Amount of formed [Leu^13 ]-motilin-Hse-lactone", "setting": "[3]; 30 mg/ml tartaric acid, pH 5.0, 60° C. 30 days", "result": 2.7, "unit": "%"},
      {"measurement": "Amount of formed [Leu^13 ]-motilin-Hse-lactone", "setting": "[3]; 30 mg/ml tartaric acid, pH 5.5, 60° C. 30 days", "result": 1.5, "unit": "%"},
      {"measurement": "Amount of formed [Leu^13 ]-motilin-Hse-lactone", "setting": "[3]; 30 mg/ml tartaric acid, pH 6.0, 60° C. 30 days", "result": 0, "unit": "%"},
      {"measurement": "Amount of formed [Leu^13 ]-motilin-Hse-lactone", "setting": "[3]; 30 mg/ml tartaric acid, pH 6.5, 60° C. 30 days", "result": 0, "unit": "%"},
      {"measurement": "Amount of formed [Leu^13 ]-motilin-Hse-lactone", "setting": "[3]; 30 mg/ml tartaric acid, pH 7.0, 60° C. 30 days", "result": 0, "unit": "%"},
      {"measurement": "Amount of formed [Leu^13 ]-motilin-Hse-lactone", "setting": "[3]; 30 mg/ml tartaric acid, pH 8.0, 60° C. 30 days", "result": 0, "unit": "%"},
      {"measurement": "Amount of formed [Leu^13 ]-motilin-Hse-lactone", "setting": "[3]; 30 mg/ml tartaric acid, pH 9.0, 60° C. 30 days", "result": 0, "unit": "%"},
      {"measurement": "Amount of formed [Leu^13 ]-motilin-Hse-lactone", "setting": "[3]; no additive, pH 3.0, 60° C. 30 days", "result": 30.2, "unit": "%"},
      {"measurement": "Amount of formed [Leu^13 ]-motilin-Hse-lactone", "setting": "[3]; no additive, pH 4.0, 60° C. 30 days", "result": 18.7, "unit": "%"},
      {"measurement": "Amount of formed [Leu^13 ]-motilin-Hse-lactone", "setting": "[3]; no additive, pH 4.5, 60° C. 30 days", "result": 8.7, "unit": "%"},
      {"measurement": "Amount of formed [Leu^13 ]-motilin-Hse-lactone", "setting": "[3]; no additive, pH 5.0, 60° C. 30 days", "result": 5.5, "unit": "%"},
      {"measurement": "Amount of formed [Leu^13 ]-motilin-Hse-lactone", "setting": "[3]; no additive, pH 5.5, 60° C. 30 days", "result": 1.9, "unit": "%"},
      {"measurement": "Amount of formed [Leu^13 ]-motilin-Hse-lactone", "setting": "[3]; no additive, pH 6.0, 60° C. 30 days", "result": 0, "unit": "%"},
      {"measurement": "Amount of formed [Leu^13 ]-motilin-Hse-lactone", "setting": "[3]; no additive, pH 6.5, 60° C. 30 days", "result": 0, "unit": "%"},
      {"measurement": "Amount of formed [Leu^13 ]-motilin-Hse-lactone", "setting": "[3]; no additive, pH 7.0, 60° C. 30 days", "result": 0, "unit": "%"},
      {"measurement": "Amount of formed [Leu^13 ]-motilin-Hse-lactone", "setting": "[3]; no additive, pH 8.0, 60° C. 30 days", "result": 0, "unit": "%"},
      {"measurement": "Amount of formed [Leu^13 ]-motilin-Hse-lactone", "setting": "[3]; no additive, pH 9.0, 60° C. 30 days", "result": 0, "unit": "%"}
    ]}
  ]
}
